Test results as given in patent US20240116946A1 (Gilead Sciences, Inc., priority 2022, published 2024).
pEC50, pIC50: −log10 of the molar value. Read-outs that look alike come from different tables or passages of the source.

What was measured:
[1] = target: recombinant SARS-CoV-2 Main protease (Mpro) (Severe acute respiratory syndrome coronavirus 2 (2019-nCoV) (SARS-CoV-2), UniProt P0DTD1); assay: Cov Mpro Biochemical IC50 Assay; details: read-out: MPro IC50
SARS-CoV-2-NLuc = assay: microbe, parasite or virus in culture; format: cell-based, SARS Coronavirus 2
[2] = recombinant SARS-CoV-2 Mpro, fluorogenic peptide substrate
[3] = Severe acute respiratory syndrome coronavirus, 48 h, read-out: MPro EC50
[4] = recombinant SARS-CoV-2 Mpro 7.5 nM, fluorogenic peptide substrate 40 μM
[5] = Severe acute respiratory syndrome coronavirus, 48 h; read-out: MPro EC50

SMILES | pIC50 [1, 2] | pEC50 (SARS-CoV-2-NLuc; [3]) | pIC50 [1, 4] | pEC50 (SARS-CoV-2-NLuc; [5]) | pEC50 (SARS-CoV-2-NLuc; read-out: MPro EC50)
COc1cnc(Cl)c(-c2cc3[nH]c(=O)n(-c4cncc5ccccc45)c(=O)c3s2)c1 [Example 364, 6-(2-chloro-5-methoxypyridin-3-yl)-3-(isoquinolin-4-yl)thieno[3,2-d]pyrimidine-2,4(1H,3H)-dione] | 8.27 | 7.74 | – | – | –
Cc1cccc(C#N)c1-c1cc2c(s1)c(=O)n(-c1cncc3cnn(C)c13)c(=O)n2CCC#N [Example 783] | – | 6.34 | 6.70 | – | –
COc1cc(-c2cc3c(s2)c(=O)n(-c2cncc4cnn(C)c24)c(=O)n3CCC#N)c(Cl)cc1Cl [Example 1017, 3-[6-(2,4-dichloro-5-methoxy-phenyl)-3-(1-methylpyrazolo[4,3-c]pyridin-7-yl)-2,4-dioxo-thieno[3,2-d]pyrimidin-1-yl]propanenitrile] | – | – | 8.23 | 8.28 | –
COc1ccc(C#N)c(-c2cc3[nH]c(=O)n(-c4cncc5ccsc45)c(=O)c3s2)c1 [Example 483] | – | 7.74 | > 8.60 | – | –
COc1ccc(Cl)c(-c2cc3[nH]c(=O)n(-c4cncc5ccsc45)c(=O)c3s2)c1 [Example 480] | – | 7.99 | 8.30 | – | –
O=c1[nH]c2cc(-c3cc(OC(F)F)ccc3Cl)ccc2c(=O)n1-c1cncc2ccccc12 [Example 330] | 6.49 | 6.67 | – | – | –
O=c1[nH]c2cc(-c3c(Cl)cccc3CO)sc2c(=O)n1-c1cncc2ccccc12 [Example 235] | 7.27 | – | – | 6.54 | –
COc1cc(-c2cc3[nH]c(=O)n(-c4cncc(Cl)c4)c(=O)c3s2)c(Cl)cc1F [Example 715] | – | – | 8.33 | 8.00 | –
COc1cc(-c2cc3c(s2)c(=O)n(-c2cncc4nc(C)n(C)c24)c(=O)n3CCC#N)c(Cl)cc1F (single isomer, unassigned) [Example 969, 3-(6-(2-chloro-4-fluoro-5-methoxyphenyl)-3-(1,2-dimethyl-1H-imidazo[4,5-c]pyridin-7-yl)-2,4-dioxo-3,4-dihydrothieno[3,2-d]pyrimidin-1(2H)-yl)propanenitrile] | – | – | < 6.00 | – | < 6.00
Cn1ncc2cncc(-n3c(=O)c4sc(-c5cc(F)c(F)cc5Cl)cc4n(CCC#N)c3=O)c21 (single isomer, unassigned) [Example 1076, 3-[6-(2-chloro-4,5-difluoro-phenyl)-3-(1-methylpyrazolo[4,3-c]pyridin-7-yl)-2,4-dioxo-thieno[3,2-d]pyrimidin-1-yl]propanenitrile] | – | – | 8.44 | – | 7.96
O=c1[nH]c2cc(-c3cc(Cl)cc(Cl)c3)ccc2c(=O)n1-c1cncc2ccccc12 [Example 53] | 4.48 | 5.36 | – | – | –
N#Cc1cncc(-c2cccc(Cl)c2-c2cc3[nH]c(=O)n(-c4cncc5ccccc45)c(=O)c3s2)c1 [Example 673] | – | 8.43 | 8.39 | – | –
COc1cc(-c2cc3c(s2)c(=O)n(-c2cncc4ccncc24)c(=O)n3CCC#N)c(Cl)cc1F (single isomer, unassigned) [Example 1097, 3-[6-(2-chloro-4-fluoro-5-methoxy-phenyl)-3-(2,6-naphthyridin-4-yl)-2,4-dioxo-thieno[3,2-d]pyrimidin-1-yl]propanenitrile] | – | – | 7.37 | – | 7.48
Cc1ccc(Cl)c(-c2ccc3c(=O)n(-c4cncc5ccccc45)c(=O)[nH]c3c2)c1 [Example 252] | 6.82 | 6.49 | – | – | –
COc1cnc(Cl)c(-c2cc3c(s2)c(=O)n(-c2cncc4ccccc24)c(=O)n3CCC#N)c1 (single isomer, unassigned) [Example 1088, 3-(6-(2-chloro-5-methoxypyridin-3-yl)-3-(isoquinolin-4-yl)-2,4-dioxo-3,4-dihydrothieno[3,2-d]pyrimidin-1(2H)-yl)propanenitrile] | – | – | 8.78 | – | 8.49
CCn1cc2cncc(-n3c(=O)[nH]c4cc(-c5cc(OC)c(F)cc5Cl)sc4c3=O)c2n1 [Example 734] | – | 7.36 | 8.29 | – | –

SMILES | pIC50 [1, 2] | pEC50 (SARS-CoV-2-NLuc; [3]) | pIC50 [1, 4] | pEC50 (SARS-CoV-2-NLuc; [5]) | pEC50 (SARS-CoV-2-NLuc; read-out: MPro EC50)
COc1ccc(OC)c(-c2ccc3c(=O)n(-c4cncc5ccccc45)c(=O)[nH]c3c2)c1 [Example 210] | 5.55 | 5.53 | – | – | –
COc1ccc(C#N)c(-c2cc3[nH]c(=O)n(-c4cncc5ccccc45)c(=O)c3cc2F)c1 (single isomer, unassigned) [Example 439, 2-(6-fluoro-3-(isoquinolin-4-yl)-2,4-dioxo-1,2,3,4-tetrahydroquinazolin-7-yl)-4-methoxybenzonitrile] | – | – | 6.08 | – | 6.42
COc1ccc(C#N)c(-c2cc3[nH]c(=O)n(-c4cncc5c4CCCO5)c(=O)c3s2)c1 [Example 598] | – | 6.82 | 7.53 | – | –
O=c1[nH]c2cc(-c3ccccc3OCc3ccccc3)ccc2c(=O)n1-c1cncc2ccccc12 [Example 57] | 5.26 | 5.82 | – | – | –
O=c1[nH]c2cc(-c3ccccc3Cl)sc2c(=O)n1-c1cncc2ccccc12 [Example 1, 6-(2-chlorophenyl)-3-(isoquinolin-4-yl)thieno[3,2-d]pyrimidine-2,4(1H,3H)-dione] | 7.97 | – | – | 7.54 | –
COCc1ccc(Cl)c(-c2ccc3c(=O)n(-c4cncc5ccccc45)c(=O)[nH]c3c2)c1 [Example 303] | 6.57 | 6.44 | – | – | –
COc1ccc(C#N)c(-c2cc3[nH]c(=O)n(-c4cncc5ccc(OC)cc45)c(=O)c3s2)c1 [Example 626] | – | 7.49 | 8.11 | – | –
CC(C)(O)c1cncc(-c2cccc(Cl)c2-c2ccc3c(=O)n(-c4cncc5ccccc45)c(=O)[nH]c3c2)c1 [Example 209] | 7.98 | 7.63 | – | – | –
COc1cc(-c2cc3c(s2)c(=O)n(-c2cncc4ncn(C)c24)c(=O)n3CCC#N)c(C#N)cc1F [Example 845] | – | 6.41 | 8.00 | – | –
COc1cc(-c2cc3c(s2)c(=O)n(-c2cncc4c2c(C)nn4C)c(=O)n3CCC#N)c(Cl)cc1F (single isomer, unassigned) [Example 1043, 3-(6-(2-chloro-4-fluoro-5-methoxyphenyl)-3-(1,3-dimethyl-1H-pyrazolo[3,4-c]pyridin-4-yl)-2,4-dioxo-3,4-dihydrothieno[3,2-d]pyrimidin-1(2H)-yl)propanenitrile] | – | – | < 6.00 | – | < 6.00
COc1ccc(Cl)c(-c2cc3[nH]c(=O)n(-c4cncc5ccc(N6CCN(S(C)(=O)=O)CC6)cc45)c(=O)c3s2)c1 [Example 425] | – | – | 8.11 | 7.52 | –
COc1ccc(Cl)c(-c2cc3[nH]c(=O)n(-c4cncc5ccc(N6CCOCC6)cc45)c(=O)c3s2)c1 [Example 432] | – | – | 8.16 | 8.20 | –
Cc1nc(COc2cccc(Cl)c2-c2ccc3c(=O)n(-c4cncc5ccccc45)c(=O)[nH]c3c2)co1 [Example 87] | 6.77 | 6.69 | – | – | –
Cc1nn(C(C)(C)C)cc1-c1cccc(Cl)c1-c1ccc2c(=O)n(-c3cncc4ccccc34)c(=O)[nH]c2c1 [Example 274] | 7.08 | 7.02 | – | – | –
COc1cc(Cl)c(-c2cc3[nH]c(=O)n(-c4cncc5ccccc45)c(=O)c3s2)cc1OC [Example 343] | 8.40 | 8.11 | – | – | –
COc1cc(-c2cc3[nH]c(=O)n(-c4cncc5cccc(C)c45)c(=O)c3s2)c(Cl)cc1F (single isomer, unassigned) [Example 996, 6-(2-chloro-4-fluoro-5-methoxyphenyl)-3-(5-methylisoquinolin-4-yl)thieno[3,2-d]pyrimidine-2,4(1H,3H)-dione] | – | – | 5.19 | – | 5.81
